Active and inactive are the calls of the source. No cut-off for these calls is given here.

In test [1] the test system is BaF3. As to the kind of experiment: Effect on proliferation in BaF3 EPOr cells. The test is classed as functional, cell-based. Particulars: Homo sapiens.
Test [2] deals with BaF3. In words: Effect on proliferation in wild type BaF3 cells. The test is classed as functional, cell-based. As to conditions: Homo sapiens.

On to `COc1ccc(C(=O)/C=C/c2ccc(N3C[C@H](CNC(C)=O)OC3=O)cc2)cc1`, for which the result in test [1] and in test [2] was Active.

These data come from ChEMBL document CHEMBL1143780, “Towards erythropoietin mimicking small molecules” (Bioorg Med Chem Lett, 2007).
